Reference: patent publication US12152060B2, “Interleukin-2 variants and methods of uses thereof” (Cugene Inc, priority 2018, dated 2024)

Legend:
[1] = system: Treg cells in blood; test: Pharmacodynamics study in mice following repeated administration (Q3D); format: in vivo, mouse; conditions: 0.3 mg/kg s.c. Q3D x3; compared to P-0531 and Benchmark-1
Method: Female Balb/C mice (7-week old) were acclimated in house for 5-7 days before the study. Vehicle (PBS), 0.3 mg/kg of P-0511, P-0512, P-0531, or Benchmark-1 compound were subcutaneously administered to mice (n=5/group) on days 0, 3, and 6. On days 3 and 9, three days after the first injection and multiple (3) injections, respectively, peripheral blood was collected. Based on earlier in vivo experiments, Treg cell activation, proliferation, and expansion were expected to peak on day 3, and thus three days post injection was selected for data collection and analysis. Changes in blood lymphocyte activation, proliferation, and expansion were measured by flow cytometry. P-0531 is the S125I equivalent of the wild type IL-2 fusion protein. The Benchmark-1 contains V91K mutation.

[2] = system: STAT5 phosphorylation in CD4+/Foxp3+/CD25+ Treg, CD4+/Foxp3-/CD25+ CD4 effector and CD4+/Foxp3-/CD25- CD4 naive T cell subsets; test: STAT5 phosphorylation in three CD4+ T cell subsets, human PBMC; format: cell-based; conditions: FIG. 9
Method: After human PBMC Cells were treated with serial dilutions of test compounds, fixed and permeabilized, washed, and stained with a mixture of anti-CD25-PE, anti-FOXP3-APC, anti-pSTAT5-FITC, and anti-CD4-PerCP-Cy5.5 antibodies, the flow cytometry analysis was gated into CD4+/Foxp3+/CD25+, CD4+/Foxp3−/CD25+, CD4+/Foxp3−/CD25− groups for the Treg, CD4 effector, and CD4 naive T cell subsets, respectively. Data are expressed as a percent of pSTAT5 positive cells in gated population and illustrated in FIG. 9.

[3] = system: regulatory T cells (CD4+CD25+FoxP3+ T cells), effector T cells and NK cells; test: Treg versus effector T and NK cell proliferation and expansion in mice after a single subcutaneous injection; format: in vivo, mouse; conditions: 0.3 mg/kg s.c. single dose, C57/BL6 mice
Method: IL-2 variant Fc fusion proteins were administered to mice and their ability to preferentially proliferate and expand regulatory T cells (CD4+CD25+FoxP3+ T cells) over effector T cells and NK cells were determined in vivo.
Female C57/BL6 mice (7-week old) were received from Charles River Laboratory and acclimated in house for at least 7 days before the study. Vehicle (PBS), 0.3 mg/kg of each test compounds, or IL-2 benchmark compounds were subcutaneously administered to mice on day 0. Peripheral blood samples were collected into heparin-treated tubes on days 3, 5 and 7 post-treatment. Each group contained 6 mice and baseline blood was collected 2 days prior to the treatment (day-2). After red blood cell lysis, total viable mononuclear blood cells were counted by trypan blue dead cell exclusion method and proceeded to intracellular staining for immune cell phenotype and Ki67 proliferation markers using flow cytometric analysis. Cells were stained separately with two panels of antibodies as listed: 1) anti-mouse Foxp3-FITC, Ki67-PE, anti-mouse CD25-APC and anti-mouse CD4-Percpcy5.5 (1:50 dilution) for CD4+T-regulatory cells (Treg); 2) anti-mouse CD3-FITC, Ki67-PE, anti-mouse CD335-APC and anti-mouse CD8-Percpcy5.5 (1:50 dilution) for CD8+T and NK cells.

Substance: P-0511: Fc fusion protein of IL-2 variant L19H/S125I/Q126E; SEQ ID NO: 198
- Treg cell counts, fold changes relative to PBS and Treg/Tconv ratio [1]: superior capabilities to sustain Treg pool
- pSTAT5 potency and selectivity in Treg, Teff and naive CD4 T cell subsets (in words) [2]: preferential activation of Treg over Teff
- pSTAT5 potency and selectivity in Treg, Teff and naive CD4 T cell subsets (in words) ([2]; listed as P-511): superior to both Benchmark-2 and -3
- Ki67 stimulation on CD8 T cells and NK cells [3]: mild Ki67 stimulation
- expansion of CD4+ Tconv cells, CD8 T cells or NK cells [3]: No significant expansion
- Treg cell proliferation and expansion (Ki67 positive Treg, % Treg over CD4+ T cells or lymphocytes) ([3]; days 3, 5, 7): stronger in vivo efficacy
